Assay results: patent publication EP4722212A1, “NOVEL COMPOUND FOR INHIBITING PROTEIN KINASES AND PHARMACEUTICAL COMPOSITION COMPRISING SAME” (Magicbullettherapeutics Co., Ltd., priority 2023, dated 2024)

Legend:
A172 = experiment: Cell line inhibition analysis (CCK-8, 72 h); format: cell-based; details: Homo sapiens, A 172; read-out: Cell growth inhibition GI50 A172
Description: (§1) C4-2B and 22Rv1 cells were purchased from ATCC and cultured according to the manufacturer's instructions. The cells were seeded in 96-well plates at 7×10^3cells/100 µl/well and allowed to attach for one day. After removing the culture medium, 90 µl/well of fresh culture medium was added, followed by addition of 10 µl/well of culture medium containing compounds at nine concentrations (0.076-500 µM) serially diluted 3-fold and DMSO control to achieve final concentrations of 0-50 µM, and then cultured for 72 hours in a 37 °C CO2 incubator. Cell proliferation after 72 hours was assessed by adding 10 µl/well of CCK-8 solution, orbital shaking for 30 seconds, then incubating at 37 °C CO2 incubator for 2 hours and measuring absorbance at 450 nm using a microplate reader. The measured absorbance values were corrected by subtracting the absorbance of wells containing only culture medium and CCK-8 solution, and GI50 values were calculated using GraphPad Prism 8 software.
(§2) Meanwhile, in a separate 96-well plate, cells were seeded at 7 × 10^3 cells/100 µl/well, allowed to attach for one day, CCK-8 solution was added, and absorbance was measured to establish the 'Growth (%) = 0' value.
(§3) Furthermore, experiments were conducted on A172, A549, HCI-H460, AsPC-1, MIA-Paca-2, DLD-1, HCT-116, HT-29, SW480, SW620, MDA-MB-231, and SKOV3 cell lines using the same method, with results shown in Tables 9 and 10 below [* <1 µM: A, <5 µM: B, <10 µM: C, >10 µM: D].

HT-29 = experiment: Cell line inhibition analysis (CCK-8, 72 h); format: cell-based; details: Homo sapiens, read-out: Cell growth inhibition GI50 HT-29
Description: as §1, §2, §3

A549 = experiment: Cell line inhibition analysis (CCK-8, 72 h); format: cell-based; details: Homo sapiens, read-out: Cell growth inhibition GI50 A549
Description: as §1, §2, §3

22Rv1 = experiment: Cell line inhibition analysis (CCK-8, 72 h); format: cell-based; details: Homo sapiens; 22Rv1, 72 hours; read-out: Cell growth inhibition GI50 22Rv1
Description: as §1, §2

C4-2B = experiment: Cell line inhibition analysis (CCK-8, 72 h); format: cell-based; details: read-out: Cell growth inhibition GI50 C4-2B
Description: as §1, §2

Src = biological target: T1, Src (Homo sapiens, UniProt P12931); experiment: Enzyme activity inhibition (Reaction Biology); format: biochemical
T1 construct: purchased Reaction Biology (RBC)
T1 sequence (P12931 whole entry): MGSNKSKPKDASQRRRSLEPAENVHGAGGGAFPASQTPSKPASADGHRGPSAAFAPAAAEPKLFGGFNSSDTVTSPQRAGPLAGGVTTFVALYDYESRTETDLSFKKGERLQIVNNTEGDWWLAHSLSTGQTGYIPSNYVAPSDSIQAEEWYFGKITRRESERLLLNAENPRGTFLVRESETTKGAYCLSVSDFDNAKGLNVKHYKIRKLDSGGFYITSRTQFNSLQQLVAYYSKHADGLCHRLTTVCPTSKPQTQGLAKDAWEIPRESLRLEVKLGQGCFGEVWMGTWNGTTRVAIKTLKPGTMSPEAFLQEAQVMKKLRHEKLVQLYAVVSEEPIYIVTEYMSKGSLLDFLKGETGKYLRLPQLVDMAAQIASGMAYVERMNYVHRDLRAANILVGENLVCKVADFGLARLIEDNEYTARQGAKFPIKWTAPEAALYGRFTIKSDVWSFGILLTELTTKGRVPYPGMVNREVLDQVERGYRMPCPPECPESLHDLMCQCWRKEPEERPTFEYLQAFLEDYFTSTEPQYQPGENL
Description: (§4) [* <10 nM: A, <100 nM: B, >100 nM: C]. [Table 7]

BMX = biological target: T2, BMX (Homo sapiens, UniProt P51813); experiment: Enzyme activity inhibition (Reaction Biology); format: biochemical
T2 construct: purchased Reaction Biology (RBC)
T2 sequence (P51813 1-675): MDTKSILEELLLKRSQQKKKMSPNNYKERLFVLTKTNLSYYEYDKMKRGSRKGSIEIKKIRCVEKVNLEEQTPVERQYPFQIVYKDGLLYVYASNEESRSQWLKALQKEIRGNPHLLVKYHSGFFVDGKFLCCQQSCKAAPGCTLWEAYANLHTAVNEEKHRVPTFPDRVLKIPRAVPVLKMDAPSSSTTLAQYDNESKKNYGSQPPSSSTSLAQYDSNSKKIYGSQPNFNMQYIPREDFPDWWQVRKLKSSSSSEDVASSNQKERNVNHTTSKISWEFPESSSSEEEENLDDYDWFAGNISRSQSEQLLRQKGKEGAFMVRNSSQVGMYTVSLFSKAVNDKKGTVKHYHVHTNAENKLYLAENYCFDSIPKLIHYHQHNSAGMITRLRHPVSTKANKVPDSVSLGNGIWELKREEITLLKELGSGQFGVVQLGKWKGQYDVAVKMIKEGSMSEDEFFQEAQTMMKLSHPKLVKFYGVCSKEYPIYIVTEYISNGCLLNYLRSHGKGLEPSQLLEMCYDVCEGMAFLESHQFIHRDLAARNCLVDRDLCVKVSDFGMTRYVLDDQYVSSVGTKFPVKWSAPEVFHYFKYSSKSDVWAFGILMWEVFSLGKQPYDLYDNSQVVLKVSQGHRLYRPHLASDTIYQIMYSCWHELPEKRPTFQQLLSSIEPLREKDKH
Description: as §4

ACK1 = biological target: T3, ACK1 (Homo sapiens, UniProt Q07912); experiment: Enzyme activity inhibition (Reaction Biology); format: biochemical
T3 construct: purchased Reaction Biology (RBC)
T3 sequence (Q07912 whole entry): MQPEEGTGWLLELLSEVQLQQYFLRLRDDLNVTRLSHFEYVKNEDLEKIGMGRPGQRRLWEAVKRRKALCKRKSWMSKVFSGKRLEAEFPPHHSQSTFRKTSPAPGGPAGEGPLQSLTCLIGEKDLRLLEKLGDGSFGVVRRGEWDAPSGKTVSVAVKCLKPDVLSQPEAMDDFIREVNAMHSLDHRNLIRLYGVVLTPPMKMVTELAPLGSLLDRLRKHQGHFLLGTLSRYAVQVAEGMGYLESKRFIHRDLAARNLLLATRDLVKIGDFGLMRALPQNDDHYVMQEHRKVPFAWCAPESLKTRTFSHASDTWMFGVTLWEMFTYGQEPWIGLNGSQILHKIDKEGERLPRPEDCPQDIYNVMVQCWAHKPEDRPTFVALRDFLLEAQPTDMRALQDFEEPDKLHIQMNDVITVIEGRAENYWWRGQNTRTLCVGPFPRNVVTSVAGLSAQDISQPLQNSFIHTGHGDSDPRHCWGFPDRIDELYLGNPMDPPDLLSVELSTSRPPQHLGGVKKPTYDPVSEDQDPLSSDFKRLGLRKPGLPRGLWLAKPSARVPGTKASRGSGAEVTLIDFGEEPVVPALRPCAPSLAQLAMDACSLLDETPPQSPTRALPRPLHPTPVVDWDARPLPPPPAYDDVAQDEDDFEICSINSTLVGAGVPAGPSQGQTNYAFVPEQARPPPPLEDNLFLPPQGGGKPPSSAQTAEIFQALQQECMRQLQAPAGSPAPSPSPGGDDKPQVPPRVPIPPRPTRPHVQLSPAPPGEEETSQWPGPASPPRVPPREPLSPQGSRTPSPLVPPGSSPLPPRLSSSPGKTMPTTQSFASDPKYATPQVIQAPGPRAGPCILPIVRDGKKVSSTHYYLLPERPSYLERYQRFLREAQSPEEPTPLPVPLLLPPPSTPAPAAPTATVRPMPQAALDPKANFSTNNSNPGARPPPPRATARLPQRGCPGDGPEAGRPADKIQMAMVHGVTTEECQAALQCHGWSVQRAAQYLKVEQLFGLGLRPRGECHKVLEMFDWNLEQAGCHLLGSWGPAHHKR
Description: as §4

MDA-MB-231 = experiment: Cell line inhibition analysis (CCK-8, 72 h); format: cell-based; details: Homo sapiens, read-out: Cell growth inhibition GI50 MDA-MB-231
Description: as §1, §2, §3

HCT-116 = experiment: Cell line inhibition analysis (CCK-8, 72 h); format: cell-based; details: Homo sapiens, read-out: Cell growth inhibition GI50 HCT-116
Description: as §1, §2, §3

SKOV3 = experiment: Cell line inhibition analysis (CCK-8, 72 h); format: cell-based; details: Homo sapiens, SK-OV-3; read-out: Cell growth inhibition GI50 SKOV3
Description: as §1, §2, §3

DLD-1 = experiment: Cell line inhibition analysis (CCK-8, 72 h); format: cell-based; details: Homo sapiens, read-out: Cell growth inhibition GI50 DLD-1
Description: as §1, §2, §3

SW480 = experiment: Cell line inhibition analysis (CCK-8, 72 h); format: cell-based; details: Homo sapiens, read-out: Cell growth inhibition GI50 SW480
Description: as §1, §2, §3

SW620 = experiment: Cell line inhibition analysis (CCK-8, 72 h); format: cell-based; details: Homo sapiens, SW-620; read-out: Cell growth inhibition GI50 SW620
Description: as §1, §2, §3

HCI-H460 = experiment: Cell line inhibition analysis (CCK-8, 72 h); format: cell-based; details: read-out: Cell growth inhibition GI50 HCI-H460
Description: as §1, §2, §3

MIA-Paca-2 = experiment: Cell line inhibition analysis (CCK-8, 72 h); format: cell-based; details: Homo sapiens, read-out: Cell growth inhibition GI50 MIA-Paca-2
Description: as §1, §2, §3

AsPC-1 = experiment: Cell line inhibition analysis (CCK-8, 72 h); format: cell-based; details: Homo sapiens, ASPC1; read-out: Cell growth inhibition GI50 AsPC-1
Description: as §1, §2, §3

Structure (SMILES)	GI50 (A172)	GI50 (HT-29)	GI50 (A549)	GI50 (22Rv1)	GI50 (C4-2B)	IC50 (Src)	IC50 (BMX)	IC50 (ACK1)	GI50 (MDA-MB-231)	GI50 (HCT-116)	GI50 (SKOV3)	GI50 (DLD-1)	GI50 (SW480)	GI50 (SW620)	GI50 (HCI-H460)	GI50 (MIA-Paca-2)	GI50 (AsPC-1)
Cc1ccc(NC(=O)c2cccc(C(F)(F)F)c2)cc1N1Cc2cnc(NCCO)nc2C2(CC2)C1=O [Compound 126, N-(3-(2'-((2-hydroxyethyl)amino)-7'-oxo-5'H-spiro[cyclopropane-1,8'-pyrido[4,3-d]pyrimidine]-6'(7'H)-yl)-4-methylphenyl)-3-(trifluoromethyl)benzamide]	1000 to 5000 nM	5000 to 10000 nM	1000 to 5000 nM														
Cc1ccc(NC(=O)c2cncc(C(F)(F)F)c2)cc1N1Cc2cnc(NCCO)nc2C2(CC2)C1=O [Compound 130, N-(3-(2'-((2-hydroxyethyl)amino)-7'-oxo-5'H-spiro[cyclopropane-1,8'-pyrido[4,3-d]pyrimidine]-6'(7'H)-yl)-4-methylphenyl)-5-(trifluoromethyl)nicotinamide]	1000 to 5000 nM	> 10000 nM	> 10000 nM														
Cc1ccc(NC(=O)c2cncc(C(F)(F)F)c2)cc1N1Cc2cnc(N)nc2C2(CC2)C1=O [Compound 24, N-(3-(2'-amino-7'-oxo-5'H-spiro[cyclopropane-1,8'-pyrido[4,3-d]pyrimidine]-6'(7'H)-yl)-4-methylphenyl)-5-(trifluoromethyl)nicotinamide]	< 1000 nM	> 10000 nM	> 10000 nM	5000 to 10000 nM	1000 to 5000 nM	< 10 nM	< 10 nM	< 10 nM	1000 to 5000 nM	< 1000 nM	1000 to 5000 nM	1000 to 5000 nM	1000 to 5000 nM	< 1000 nM	1000 to 5000 nM	1000 to 5000 nM	1000 to 5000 nM
Cc1ccc(NC(=O)c2cncc(C(F)(F)F)c2)cc1N1Cc2cnc(N[C@@H](C)CO)nc2C2(CC2)C1=O [Compound 131, (S)-N-(3-(2'-((1-hydroxypropan-2-yl)amino)-7'-oxo-5'H-spiro[cyclopropane-1,8'-pyrido[4,3-d]pyrimidine]-6'(7'H)-yl)-4-methylphenyl)-5-(trifluoromethyl)nicotinamide]	1000 to 5000 nM	> 10000 nM	> 10000 nM														
Cc1ccc(NC(=O)c2cccc(C(F)(F)F)c2)cc1N1Cc2cnc(N)nc2C2(CC2)C1=O [Compound 2, N-(3-(2'-amino-7'-oxo-5'H-spiro[cyclopropane-1,8'-pyrido[4,3-d]pyrimidine]-6'(7'H)-yl)-4-methylphenyl)-3-(trifluoromethyl)benzamide]	< 1000 nM	> 10000 nM	> 10000 nM	1000 to 5000 nM	1000 to 5000 nM	10 to 100 nM	10 to 100 nM	10 to 100 nM	1000 to 5000 nM	< 1000 nM	1000 to 5000 nM	1000 to 5000 nM	1000 to 5000 nM	1000 to 5000 nM	1000 to 5000 nM	< 1000 nM	< 1000 nM
Cc1ccc(NC(=O)c2cccc(C(F)(F)F)c2)cc1N1Cc2cnc(N[C@@H](C)CO)nc2C2(CC2)C1=O [Compound 127, (S)-N-(3-(2'-((1-hydroxypropan-2-yl)amino)-7'-oxo-5'H-spiro[cyclopropane-1,8'-pyrido[4,3-d]pyrimidine]-6'(7'H)-yl)-4-methylphenyl)-3-(trifluoromethyl)benzamide]	< 1000 nM	> 10000 nM	> 10000 nM														
Cc1ccc(NC(=O)c2cc(F)cc(C(F)(F)F)c2)cc1N1Cc2cnc(N)nc2C2(CC2)C1=O [Compound 7, N-(3-(2'-amino-7'-oxo-5'H-spiro[cyclopropane-1,8'-pyrido[4,3-d]pyrimidine]-6'(7'H)-yl)-4-methylphenyl)-3-fluoro-5-(trifluoromethyl)benzamide]				< 1000 nM	< 1000 nM	< 10 nM	< 10 nM	< 10 nM	1000 to 5000 nM	1000 to 5000 nM			1000 to 5000 nM	1000 to 5000 nM			< 1000 nM
Cc1ccc(NC(=O)c2cccc(C(F)(F)F)c2)cc1N1Cc2cnc(Nc3cnn(CC(F)(F)F)c3)nc2C2(CC2)C1=O [Compound 64, N-(4-methyl-3-(7'-oxo-2'-((1-(2,2,2-trifluoroethyl)-1H-pyrazol-4-yl)amino)-5'H-spiro[cyclopropane-1,8'-pyrido[4,3-d]pyrimidine]-6'(7'H)-yl)phenyl)-3-(trifluoromethyl)benzamide]									< 1000 nM	< 1000 nM			< 1000 nM	< 1000 nM			< 1000 nM
Cc1ccc(NC(=O)c2cccc(C(F)(F)F)c2)cc1N1Cc2cnc(NC3CC3)nc2C2(CC2)C1=O [Compound 3, N-(3-(2'-(cyclopropylamino)-7'-oxo-5'H-spiro[cyclopropane-1,8'-pyrido[4,3-d]pyrimidine]-6'(7'H)-yl)-4-methylphenyl)-3-(trifluoromethyl)benzamide]				> 10000 nM	1000 to 5000 nM	10 to 100 nM	< 10 nM	10 to 100 nM	1000 to 5000 nM	1000 to 5000 nM			1000 to 5000 nM	1000 to 5000 nM			1000 to 5000 nM
